Experimental data as given in PMC12040169 (PLOS Biology, 2025).

Test: in vitro
Conditions: human, hela cells, % viability

SMILES | viability at 28.5 h, 10 µM [%]
CSc1ccc(-c2cn3ccnc3c(NCCc3ccncc3)n2)cc1 [CBK066479] | 102
CC(=O)c1ccc(C(=O)Nc2sc3c(c2C#N)CCN(C(C)=O)C3)cc1 [CBK304418] | 84.8
O=C(/C=C/c1ccco1)NC(=S)Nc1ccc(O)c(-c2nc3ccccc3s2)c1 [CBK264344] | 85.7
Cc1oc(-c2cccs2)cc1C(=O)O [CBK021183] | 93.5
COC(=O)[C@H]1CN(C(=O)c2cccs2)C[C@@H]1c1ccccc1F [CBK283775] | 87.4
CN(C)CCN1CCN(c2cncc(-c3cccnc3)n2)CC1 [CBK065416] | 93.2
Cc1ncccc1Oc1ccc(NC(=O)N2CCc3ccccc3CC2)cn1 [CBK018383] | 96.6
CC1(C)CC(NC(=O)Cn2ccc3ccccc32)CCO1 (centres unmarked) [CBK304347] | 98
NNC(=O)CN(CCc1ccccc1)S(=O)(=O)c1ccc(Cl)cc1 [CBK263754] | 86.2
COc1ccc(Nc2cc(-c3cccc(NC(C)=O)c3)ncn2)cn1 [CBK037125] | 95.1
CS(=O)(=O)N[C@H]1C[C@H]2C(=O)Nc3cc(Cl)ccc3C(=O)N2C1 [CBK289363] | 89
CCCC(=O)N1CCC[C@H]1Cn1nc(-c2ccc(F)cc2)ccc1=O [CBK284288] | 99.5
Cn1c(=O)cc(Oc2ccc(F)cc2)c2ccccc21 [CBK281451] | 88.1
CC(C)COc1ccc(-c2nn(-c3ccccc3)cc2CSC(=N)N)cc1 [CBK264278C] | 0.298
COc1cccc(CNCc2ccco2)c1OCc1ccccc1F [CBK270271C] | 92.6
CCCn1cc(C(CC(=O)O)C(=O)O)c2ccccc21 (centres unmarked) [CBK267345] | 92.4
Cc1cccc2c(C(=O)NCc3ccc(S(N)(=O)=O)cc3)cc(-c3ccccc3Cl)nc12 [CBK267743] | 93
O=C(NCc1nnc(-c2cccs2)o1)C1(c2cccc(F)c2)CC1 [CBK284639] | 90.2
O=c1c2c3nc4ccccc4nc3n(CCc3ccccc3)c2ncn1Cc1ccco1 [CBK269502] | 77.5
COc1ccccc1CN(Cc1cccnc1)C(=O)c1cnc(C)cn1 [CBK306972] | 95.1
CC(C)Nc1nc2ccccc2nc1SCCOc1ccccc1 [CBK103668] | 89.8
Cc1cccc(NCC(=O)N/N=C/c2cc3ccccc3nc2Cl)c1 [CBK261236] | 90
O=C1CCc2cc(S(=O)(=O)Nc3ccccc3-c3ccccc3)ccc2N1 [CBK286366] | 92.6

SMILES | viability at 28.5 h, 10 µM [%]
CCN1CCN(c2ccc(NC(=O)Cn3cnc4c(=O)n(C)c(=O)n(C)c43)cc2Cl)CC1 [CBK269535] | 94.3
Cc1onc(-c2ccccc2Cl)c1C(=O)Nc1ccc(S(=O)(=O)N2CCC(C)CC2)cc1 [CBK265463] | 107
CCN(CC)CCOc1c(C)cccc1Cl [CBK261950] | 95.9
Nc1ncnc2c1nnn2[C@@H]1O[C@H](CO)[C@H](O)C1O (some centres unmarked) [CBK201228] | 30
O=C(CN1CCN(c2ncccn2)CC1)N1N=CCC1c1ccccc1 (centres unmarked) [CBK270184] | 89.4
O=C(Cc1ccccc1)Nc1ncc(Cc2ccccc2)s1 [CBK287322] | 95.6
Cc1nn(C)c(C)c1CCNC(=O)CC1CCCCN1C (centres unmarked) [CBK281774] | 97.6
Cn1c(O)c(CCNc2cc(C3CCOC3)ncn2)cnc1=O (centres unmarked) [CBK307648] | 90.7
S=c1[nH]cnc2c1[nH]c1ccc(Br)cc12 [CBK288487] | 102
O=C(CN1CCC(NC(=O)c2cccs2)CC1)Nc1ccc(F)c(F)c1 [CBK305991] | 83.8
Cn1ccnc1C1(O)CCN(C(=O)c2cc(F)cc(F)c2)CC1 [CBK283544] | 102
COCC(C)NC(=O)Cn1c(C(F)F)cc2cccnc21 (centres unmarked) [CBK285010] | 105
CC(CN(C)C)C(=O)c1cn(C)c2ccccc12 (centres unmarked) [CBK015540] | 102
Cc1noc(C)c1CS(=O)(=O)Cc1ccc(Cl)cc1 [CBK034194] | 84.9
COc1ccc2c(-c3ccccc3)cc(=O)n(CCS(=O)(=O)Oc3ccccc3)c2c1 [CBK296621] | 84.6
Cc1ccc([N+](=O)[O-])cc1NC(=O)CSc1nnc(-c2ccco2)o1 [CBK268378] | 117
NC(=O)CN1CC2(CCN(CCc3c[nH]c4ccccc34)CC2)c2ccccc21 [CBK126784] | 93.3
Cc1ccc(S(=O)(=O)Nc2nccnc2-c2ccc(Cc3nnn[nH]3)cc2)cc1 [CBK073841] | 96.9
O=C(COc1ccccc1O)NCCN1CCOCC1 [CBK262243C] | 84
Cc1cc2ncn(CC(=O)NCc3ccccc3)c2cc1C [CBK200213] | 104
Cc1ccc(CN[C@@H]2CCC(=O)N[C@H]2c2cc(F)cc(F)c2)o1 [CBK283128] | 97.9
COc1ccc(-c2nc3c(c(SCC(=O)O)n2)COC(C)(C)C3)cc1 [CBK286704] | 107
CN1CCN(C(=O)CNS(=O)(=O)c2cc(Br)c(Cl)s2)CC1 [CBK034482] | 94

SMILES | viability at 28.5 h, 10 µM [%]
CC(=O)Nc1ccc(/C(C)=N/NC(=O)c2ccc(CN3CCOCC3)cc2)cc1 [CBK262720] | 91.7
Cc1nc(C)n(CC(=O)N2CCc3sccc3C2c2ccco2)n1 (centres unmarked) [CBK281649] | 98.8
NC1CCC(N(CCc2ccccc2)C(=O)Nc2ccc3c(c2)OCO3)CC1 (centres unmarked) [CBK000480C] | 83.1
O=C(Nc1ccccc1)Nc1ccc2c(c1)S(=O)(=O)c1cc(NC(=O)Nc3ccccc3)ccc1-2 [CBK262320] | 94.6
CCN1CC2(CCN(Cc3cc(OC)c(OC)c(OC)c3)CC2)c2ccccc21 [CBK131477] | 93.2
COC(=O)c1c(NC(=O)CC2SCC(C(=O)OC)NC2=O)sc2c1CCCC2 (centres unmarked) [CBK263834] | 94.5
N/C(=N\c1nonc1N)NC(=O)c1ccccc1 [CBK006756] | 71.5
Cn1nc(-c2ccc(S(=O)(=O)Nc3cccc(Cl)c3Cl)s2)cc1C(F)(F)F [CBK067548] | 92.2
Nc1nnc(Sc2nc3ccccc3nc2N2CCCC2)s1 [CBK093750] | 88.4
CS(=O)(=O)N(Cc1ccco1)Cc1cc2ccccc2nc1O [CBK269434] | 111
COc1ccc(-c2cc(NC(=S)NC(=O)/C=C/c3ccccc3)[nH]n2)cc1 [CBK007190] | 97.9
CC(CN1CCCCC1)NC(=O)c1cc(-c2ccncc2)nc2ccc(Br)cc12 (centres unmarked) [CBK267756] | 90.6
C/C=N\n1c(CO)nnc1CO [CBK034325] | 86.5
CN(Cc1nc2c(s1)CCCC2)C(=O)CCn1nnc2ccccc21 [CBK306704] | 107
CCc1nnc(COC(=O)c2ccccc2NC(=O)Cc2ccccc2)o1 [CBK296762] | 81.5
O=C(c1nccs1)C1CCN(C(=O)Cc2ccc(F)cc2)CC1 [CBK284199] | 104
Cc1ccc(-c2cnc(NC(=O)Cn3cccn3)n2C)cc1C [CBK281727] | 102
O=C(CSc1nnc(-c2ccco2)n1-c1ccccc1)NCc1ccc2c(c1)OCO2 [CBK267308] | 85.3
CN(C)CCNc1ccc(-c2nnc(O)c3ccccc23)cc1[N+](=O)[O-] [CBK266143] | 111
COCc1cn([C@H]2CO[C@H]3[C@@H]2OC[C@H]3OC(=O)Nc2ccc(C)cc2)nn1 [CBK289489] | 90.6
CCCC(=O)Nc1cccc(NC(=O)c2nc[nH]n2)c1 [CBK269604] | 104
Cn1c(CNc2ccccc2C(=O)O)c(C#N)c2ccccc21 [CBK286977] | 88.7
CCc1nc2ccc(C(=O)N3CCN(c4ccccc4)CC3)cn2c1N(C)Cc1ccc(OC)cc1 [CBK145584] | 85.4

SMILES | viability at 28.5 h, 10 µM [%]
Cc1ccc(NC(=O)CSc2nnc(N)[nH]2)cc1 [CBK034301] | 110
O=C(c1ccc(S(=O)(=O)N2CCCCC2)cc1)N1CCN(CCN2C(=O)c3cccc4cccc(c34)C2=O)CC1 [CBK262536] | 79.3
COc1ccc([C@@]23CC[C@@H](NC(=O)Nc4ccc(F)c(F)c4)C[C@@H]2N(C(=O)CN)CC3)cc1OC [CBK051679] | 111
Cn1nc(-c2ccccc2)cc1[C@H]1CN2CC[C@H]1C[C@@H]2CNS(C)(=O)=O [CBK289096] | 99.2
CCN(CC)CCn1c2ccccc2c2nc3cc(C(=O)O)ccc3nc21 [CBK297496] | 101
COc1ccc(CCCC(=O)NCc2sc(-c3ccccc3)nc2C)cc1OC [CBK092353] | 85.2
CCc1ccc(OCC(=O)c2ccc(O)c(CN(C)C)c2O)cc1 [CBK264438C] | 116
Cc1ccc2nc(N3CCCC(O)C3)c(CN3CCN(C)CC3)cc2c1 (centres unmarked) [CBK307710] | 100
O=C1NC(=O)C(c2ccccc2)(c2ccccn2)N1 (centres unmarked) [CBK288455] | 97
CC(C)(C)c1n[nH]c(C2CN(C(=O)CCCn3cccn3)CCO2)n1 (centres unmarked) [CBK305198] | 88.1
COCCN1CC(CNC(=O)Nc2cc(NC(C)=O)ccc2F)CC1=O (centres unmarked) [CBK304398] | 82.4
Cc1nnc(Nc2ccc3c(c2)nc2n3CCN(C3CCCCC3)C2)c2ccccc12 [CBK268042] | 90.9
CC(=O)Nc1cccc(-n2cnnc2SCC2CCOCC2)c1 [CBK306354] | 92
Cc1nn(CC(=O)N2CCCC(C)C2)c(=O)c2cc3sccc3n12 (centres unmarked) [CBK284046] | 87.7
O=C(c1ccccc1)c1ccc(S(=O)(=O)N2CCN(Cc3ccc(O)c(F)c3)CC2)cc1 [CBK062948] | 95.8
Cc1nc2ccc(C(=O)N3CCN(C(=O)c4ccc(Cl)cc4)CC3)cc2nc1C [CBK296647] | 85
CC(=O)Nc1ccc(S(=O)(=O)NCC#N)cc1Cl [CBK045102] | 97.3
CN(CC(=O)O)S(=O)(=O)c1ccc(F)c2ccccc12 [CBK268447] | 98.5
O=c1[nH]nc(SCc2ccccc2Cl)c(=S)[nH]1 [CBK027795] | 117
Cc1ccc(-n2c(SCC(=O)NCc3ccccc3)nnc2-c2ccc(Cl)cc2)cc1C [CBK265909] | 97.9
